The values below come from patent US20170065554A1, “ACTIVATED SOY POD FIBER” (priority 2014, published 2017).

The subject of this experiment is 3T3-L1 adipocytes. As to the kind of experiment: [3H]-2-deoxy-glucose uptake by adipocytes. It is filed as cell-based, Murine. The protocol:
To determine if one mechanism for glyceollins to improve the oral glucose challenge in a prediabetic model is by increasing the glucose uptake by fat, glyceollin pharmacology was studied in 3T3-L1 cells. Murine preadipocytes (Zen-Bio Inc.) were cultured using PM-1-L1 medium (Zen-Bio Inc.) containing Dulbecco's modified Eagle's medium (DMEM)/Ham's F-10 medium (1:1, v/v), HEPES 15 mM (pH 7.4), 10% (v/v) fetal bovine serum, penicillin (100 U/ml), streptomvcin ([…]), and amphotericin B (0.25 μg/ml) in a humidified atmosphere (5% CO2/95% air). After 3-4 days, confluent cells were placed in differentiation medium (DM-2-L1, Zen-Bio Inc.) containing DMEM/Ham's F-10 medium (1:1, v/v), HEPES 15 mM (pH 7.4), 3% (v/v) fetal bovine serum, biotin ([…]), pantothenate (17 μM), human insulin (100 nM), dexamethasone (1 μM), penicillin (100 U/ml), streptomycin (100 μg/ml), amphotericin B (0.25 μg/ml), isobutylmethylxanthine ([…]) and PPARγ agonist (10 μM) and further incubated in the humidified atmosphere for 3 days. […]
Adipocytes were rinsed in sterile, fresh KRH buffer (HEPES pH=7.4, 1 mM CaCl2, 1.2 mM MgSO4, 1 mM KH2PO4, 1.4 mM KCl, […], 130 mM NaCl), and then preincubated for 24 h in KRH buffer. […] The vials were mixed and counted for 10 min in an Applied Biosystems 1100 liquid scintillation counter using the factory preset window to detect tritium.

“And” between values parts separate entries of the source, which are not always exact repeats. Equal entries are not always repeated.

Take insulin: the “maximal stimulation relative to basal glucose uptake” value (0.3 nM-300 nM insulin) is “about 3 times”. Moreover, the EC50 (as a rule, the concentration at which the effect is half-maximal) (insulin 30 min at 37° C., then 10 min [3H]-2-deoxy-glucose, read-out: EC50 of insulin-mediated glucose uptake) was 1.9 nM and 1.92 nM.
